Source: US20240254103A9, “NOVEL PYRIMIDINE DERIVATIVE, AND COMPOSITION FOR PREVENTING OR TREATING NEURODEGENERATIVE DISEASES AND CANCER, COMPRISING SAME” (WHAN IN PHARMACEUTICAL CO., LTD., priority 2020, published 2024)

Target: T1, wild-type LRRK2 (Homo sapiens, UniProt Q5S007)
T1 construct: DNA tag for qPCR detection (not a peptide; the protein part that carries it is not described); made in house; host or cells: HEK 293 cells (the same paragraph also describes T7 phage grown in E. coli BL21)
Experiment: Inhibitory activity against LRRK2: competition binding to ligand-affinity beads, DNA-tagged kinase quantitated by qPCR
Conditions: % of ctrl; for remaining binding at 0.01 µM: 10 nM compound, read-out: LRRK2(WT) Remaining kinase activity(%) at 10 nM; for remaining binding at 0.05 µM: 50 nM compound, read-out: LRRK2(WT) Remaining kinase activity(%) at 50 nM
Description: Representative compounds synthesized in Example 1 were assayed for inhibitory activity against wild-type LRRK2 and mutant LRRK2 (G2019S), and the results are summarized in Tables 2 and 3. In brief, a T7 phase strain carrying the wild-type kinase consisting of amino acid residues from H970 to E2527 of human-derived LRRK2 (Accession no. NP_940980.3) or a T7 phase strain carrying the G2019S mutation kinase was infected into E. coli strain BL21 which was then grown until log phase. After infection with T7 phases (multiplicity of infection=0.4), the cells were cultured at 32° C. for 90-150 minutes while shaking. Then, E. coli lysates were centrifuged (6,000×g) and the supernatant was filtered through a 0.2-μm filter. The kinases were produced in HEK 293 cells. In this regard, DNA was tagged to obtain DNA-tagged kinases for qPCR detection. For use in analyzing the kinases, affinity resins were prepared by treating streptavidin-coated magnetic beads with biotinylated small molecule ligands at room temperature for 30 minutes. Then, the liganded beads were blocked with an excess of biotin and washed with a blocking buffer (SeaBlock (Pierce), 1% BSA, 0.05% Tween 20, 1 mM DTT) to remove unbound ligands and thus to reduce the binding of non-specific phages. […] After one hour of incubation, the affinity beads were washed with a wash buffer (1×PBS, 0.05% Tween 20), resuspended in an elution buffer (1×PBS, 0.05% Tween 20, 0.5 μM non-biotinylated affinity ligand), and incubated at room temperature for 30 minutes while shaking. Afterwards, concentrations of wild-type LRRK2 and mutant LRRK2 (G2019S) in the eluted samples were quantitated by qPCR. Activity values are expressed as percentages relative to the control (% of ctrl). The compounds used in the activity assay were prepared into 40× stocks in 100% DMSO. The stocks were directly diluted during analysis procedures.
Table 2 includes inhibitory activities of the representative compounds of the present disclosure at 100 nM against wild-type LRRK2 and mutant LRRK2 (G2019S) while Table 3 includes inhibitory activities of the representative compounds at 10 nM and 50 nM against wild-type LRRK2. (+++ less than 10%; ++ less than 30%; + less than 50%; −50% or higher)

T1 sequence (Q5S007 970-2527): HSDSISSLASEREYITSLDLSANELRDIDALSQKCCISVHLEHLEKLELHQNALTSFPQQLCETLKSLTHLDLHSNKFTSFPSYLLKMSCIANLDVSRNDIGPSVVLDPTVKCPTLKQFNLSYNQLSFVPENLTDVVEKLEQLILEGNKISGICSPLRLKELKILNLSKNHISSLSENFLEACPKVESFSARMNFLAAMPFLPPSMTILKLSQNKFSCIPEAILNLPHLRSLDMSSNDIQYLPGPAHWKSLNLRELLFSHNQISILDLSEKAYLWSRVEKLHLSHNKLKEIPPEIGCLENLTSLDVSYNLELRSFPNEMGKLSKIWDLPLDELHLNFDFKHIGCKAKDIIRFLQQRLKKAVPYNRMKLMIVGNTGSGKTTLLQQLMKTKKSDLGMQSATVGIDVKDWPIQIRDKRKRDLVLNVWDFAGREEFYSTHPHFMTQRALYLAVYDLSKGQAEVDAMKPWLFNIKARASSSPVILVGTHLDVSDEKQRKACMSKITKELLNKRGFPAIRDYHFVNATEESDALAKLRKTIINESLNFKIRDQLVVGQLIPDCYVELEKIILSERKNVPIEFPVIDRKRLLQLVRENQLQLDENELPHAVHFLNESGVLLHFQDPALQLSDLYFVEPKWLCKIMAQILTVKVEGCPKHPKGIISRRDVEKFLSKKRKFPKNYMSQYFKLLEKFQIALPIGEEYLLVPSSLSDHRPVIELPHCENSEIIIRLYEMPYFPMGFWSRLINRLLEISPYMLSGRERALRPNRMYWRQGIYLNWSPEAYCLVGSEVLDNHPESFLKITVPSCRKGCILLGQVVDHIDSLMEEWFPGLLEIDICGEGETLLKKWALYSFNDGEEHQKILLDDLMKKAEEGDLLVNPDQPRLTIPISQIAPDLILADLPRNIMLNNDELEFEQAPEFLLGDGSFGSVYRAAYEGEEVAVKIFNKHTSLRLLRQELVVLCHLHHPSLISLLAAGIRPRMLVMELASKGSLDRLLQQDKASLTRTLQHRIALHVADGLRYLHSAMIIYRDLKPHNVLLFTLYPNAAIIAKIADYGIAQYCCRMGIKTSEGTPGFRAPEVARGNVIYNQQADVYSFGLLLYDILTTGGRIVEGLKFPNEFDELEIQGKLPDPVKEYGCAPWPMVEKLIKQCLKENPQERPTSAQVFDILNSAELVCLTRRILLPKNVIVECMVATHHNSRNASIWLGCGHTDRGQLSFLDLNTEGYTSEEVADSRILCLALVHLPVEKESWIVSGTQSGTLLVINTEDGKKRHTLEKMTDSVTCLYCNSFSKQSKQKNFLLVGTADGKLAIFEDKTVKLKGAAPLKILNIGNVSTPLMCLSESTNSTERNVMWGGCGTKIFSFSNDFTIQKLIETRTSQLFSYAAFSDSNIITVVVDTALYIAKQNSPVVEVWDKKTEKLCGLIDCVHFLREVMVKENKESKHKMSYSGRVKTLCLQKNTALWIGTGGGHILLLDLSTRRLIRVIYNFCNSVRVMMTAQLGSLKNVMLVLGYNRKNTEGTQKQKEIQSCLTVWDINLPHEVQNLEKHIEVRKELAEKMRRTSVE

SMILES | remaining binding at 0.01 µM [%] | remaining binding at 0.05 µM [%]
COc1ccccc1CNC(=O)c1ccc(Nc2ncc(Cl)c(-c3cnn(C(C)C)c3)n2)c(OC)c1 [Compound 154, 4-((5-chloro-4-(1-isopropyl-1H-pyrazol-4-yl)pyrimidin-2-yl)amino)-3-methoxy-N-(2-methoxybenzyl)benzamide] | ≥ 50 | < 30
COc1cc(C(=O)NN2C(C)CCCC2C)ccc1Nc1ncc(Cl)c(-c2cnn(C(C)C)c2)n1 (stereo not shown) [Compound 167, 4-((5-chloro-4-(1-isopropyl-1H-pyrazol-4-yl)pyrimidin-2-yl)amino)-N-(2,6-dimethylpiperidin-1-yl)-3-methoxybenzamide] | ≥ 50 | < 30
CCOC(=O)CCNC(=O)c1ccc(Nc2ncc(Cl)c(-c3cnn(C(C)C)c3)n2)c(OC)c1 [Compound 176, ethyl 3-(4-((5-chloro-4-(1-isopropyl-1H-pyrazol-4-yl)pyrimidin-2-yl)amino)-3-methoxybenzamido)propanoate] | ≥ 50 | < 50
CCC(NC(=O)c1ccc(Nc2ncc(Cl)c(-c3cnn(C(C)C)c3)n2)c(OC)c1)c1ccccc1 (stereo not shown) [Compound 182, 4-((5-chloro-4-(1-isopropyl-1H-pyrazol-4-yl)pyrimidin-2-yl)amino)-3-methoxy-N-(1-phenylpropyl)benzamide] | ≥ 50 | < 50
COc1cc(C(=O)Nc2cccc(NS(C)(=O)=O)c2)ccc1Nc1ncc(Cl)c(-c2cnn(C(C)C)c2)n1 [Compound 190, 4-((5-chloro-4-(1-isopropyl-1H-pyrazol-4-yl)pyrimidin-2-yl)amino)-3-methoxy-N-(3-(methylsulfonamido)phenyl)benzamide] | ≥ 50 | < 50
COc1cc(C(=O)Nc2cccc(S(N)(=O)=O)c2)ccc1Nc1ncc(Cl)c(-c2cnn(C(C)C)c2)n1 [Compound 191, 4-((5-chloro-4-(1-isopropyl-1H-pyrazol-4-yl)pyrimidin-2-yl)amino)-3-methoxy-N-(3-sulfamoylphenyl)benzamide] | ≥ 50 | < 30
COc1cc(C(=O)NCCS(C)(=O)=O)ccc1Nc1ncc(Cl)c(-c2cnn(C(C)C)c2)n1 [Compound 192, 4-((5-chloro-4-(1-isopropyl-1H-pyrazol-4-yl)pyrimidin-2-yl)amino)-3-methoxy-N-(2-(methylsulfonyl)ethyl)benzamide] | ≥ 50 | < 30
COc1cc(C(=O)NCCCn2ccnc2)ccc1Nc1ncc(Cl)c(-c2cnn(C(C)C)c2)n1 [Compound 197, N-(3-(1H-imidazol-1-yl)propyl)-4-((5-chloro-4-(1-isopropyl-1H-pyrazol-4-yl)pyrimidin-2-yl)amino)-3-methoxybenzamide] | ≥ 50 | < 50
COc1cc(C(=O)NCC(OC)OC)ccc1Nc1ncc(Cl)c(-c2cnn(C(C)C)c2)n1 [Compound 198, 4-((5-chloro-4-(1-isopropyl-1H-pyrazol-4-yl)pyrimidin-2-yl)amino)-N-(2,2-dimethoxyethyl)-3-methoxybenzamide] | ≥ 50 | < 50
COC(=O)[C@@H]1CCCN1C(=O)c1ccc(Nc2ncc(Cl)c(-c3cnn(C(C)C)c3)n2)c(OC)c1 [Compound 200, methyl (4-((5-chloro-4-(1-isopropyl-1H-pyrazol-4-yl)pyrimidin-2-yl)amino)-3-methoxybenzoyl)-L-prolinate] | ≥ 50 | < 50
COc1ccc(CNC(=O)c2ccc(Nc3ncc(Cl)c(-c4cnn(C(C)C)c4)n3)c(OC)c2)cc1 [Compound 203, 4-((5-chloro-4-(1-isopropyl-1H-pyrazol-4-yl)pyrimidin-2-yl)amino)-3-methoxy-N-(4-methoxybenzyl)benzamide] | ≥ 50 | < 50
COc1cc(C(=O)Nc2cc(C)c(OC)c(C)c2)ccc1Nc1ncc(Cl)c(-c2cnn(C(C)C)c2)n1 [Compound 204, 4-((5-chloro-4-(1-isopropyl-1H-pyrazol-4-yl)pyrimidin-2-yl)amino)-3-methoxy-N-(4-methoxy-3,5-dimethylphenyl)benzamide] | ≥ 50 | < 50
COc1cc(C(=O)NCc2cccc(N)c2)ccc1Nc1ncc(Cl)c(-c2cnn(C(C)C)c2)n1 [Compound 205, N-(3-aminobenzyl)-4-((5-chloro-4-(1-isopropyl-1H-pyrazol-4-yl)pyrimidin-2-yl)amino)-3-methoxybenzamide] | ≥ 50 | < 50
COc1cc(C(=O)N2CCC(N3CCCC3)CC2)ccc1Nc1ncc(Cl)c(-c2cnn(C(C)C)c2)n1 [Compound 216, (4-((5-chloro-4-(1-isopropyl-1H-pyrazol-4-yl)pyrimidin-2-yl)amino)-3-methoxyphenyl)(4-(pyrrolidin-1-yl)piperidin-1-yl)methanone] | < 50 | < 10
COc1cc(C(=O)N2CCC(N3CCCCC3)CC2)ccc1Nc1ncc(Cl)c(-c2cnn(C(C)C)c2)n1 [Compound 217, [1,4′-bipiperidin]-1′-yl(4-((5-chloro-4-(1-isopropyl-1H-pyrazol-4-yl)pyrimidin-2-yl)amino)-3-methoxyphenyl)methanone] | < 30 | < 10

Other lines, results leading:

remaining binding at 0.01 µM [%] | remaining binding at 0.05 µM [%] | SMILES
≥ 50 | < 30 | COc1cc(C(=O)NC2CC(C)(C)NC(C)(C)C2)ccc1Nc1ncc(Cl)c(-c2cnn(C(C)C)c2)n1 [Compound 166, 4-((5-chloro-4-(1-isopropyl-1H-pyrazol-4-yl)pyrimidin-2-yl)amino)-3-methoxy-N-(2,2,6,6-tetramethylpiperidin-4-yl)benzamide]
≥ 50 | < 50 | COc1cc(C(=O)NCc2ccc(Cl)nc2)ccc1Nc1ncc(Cl)c(-c2cnn(C(C)C)c2)n1 [Compound 168, 4-((5-chloro-4-(1-isopropyl-1H-pyrazol-4-yl)pyrimidin-2-yl)amino)-N-((6-chloropyridin-3-yl)methyl)-3-methoxybenzamide]
≥ 50 | < 50 | COc1cc(C(=O)NC(C)c2ccccc2)ccc1Nc1ncc(Cl)c(-c2cnn(C(C)C)c2)n1 (stereo not shown) [Compound 179, 4-((5-chloro-4-(1-isopropyl-1H-pyrazol-4-yl)pyrimidin-2-yl)amino)-3-methoxy-N-(1-phenylethyl)benzamide]
≥ 50 | < 30 | COc1cc(C(=O)NCc2ccc(N)cc2)ccc1Nc1ncc(Cl)c(-c2cnn(C(C)C)c2)n1 [Compound 183, N-(4-aminobenzyl)-4-((5-chloro-4-(1-isopropyl-1H-pyrazol-4-yl)pyrimidin-2-yl)amino)-3-methoxybenzamide]
≥ 50 | < 50 | COc1cc(C(=O)NCc2ccc(S(N)(=O)=O)cc2)ccc1Nc1ncc(Cl)c(-c2cnn(C(C)C)c2)n1 [Compound 189, 4-((5-chloro-4-(1-isopropyl-1H-pyrazol-4-yl)pyrimidin-2-yl)amino)-3-methoxy-N-(4-sulfamoylbenzyl)benzamide]
≥ 50 | < 50 | CCN(C)C(=O)c1ccc(Nc2ncc(Cl)c(-c3cnn(C(C)C)c3)n2)c(OC)c1 [Compound 202, 4-((5-chloro-4-(1-isopropyl-1H-pyrazol-4-yl)pyrimidin-2-yl)amino)-N-ethyl-3-methoxy-N-methylbenzamide]
< 50 | < 10 | CCN(C)C1CCN(C(=O)c2ccc(Nc3ncc(Cl)c(-c4cnn(C(C)C)c4)n3)c(OC)c2)CC1 [Compound 210, (4-((5-chloro-4-(1-isopropyl-1H-pyrazol-4-yl)pyrimidin-2-yl)amino)-3-methoxyphenyl)(4-(ethyl(methyl)amino)piperidin-1-yl)methanone]
≥ 50 | < 50 | COc1cc(C(=O)Nc2ccc3c(c2)CCN3C(C)=O)ccc1Nc1ncc(Cl)c(-c2cnn(C(C)C)c2)n1 [Compound 212, N-(1-acetylindolin-5-yl)-4-((5-chloro-4-(1-isopropyl-1H-pyrazol-4-yl)pyrimidin-2-yl)amino)-3-methoxybenzamide]
